According to US20230085307A1, “PYRIDAZINONE COMPOUND AND HERBICIDE” (NISSAN CHEMICAL CORPORATION, priority 2019, published 2023):

Assays:
barnyard grass = test: Test Example 5: herbicidal effect by foliage application, plastic box (Table 20, symbol H); type: in vivo, barnyard grass (Echinochloa crus-galli); details: foliage application, 320 g/ha, evaluated three weeks after application
How it was run: (§1)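 Plants were sown into sterilized diluvial soil under about 1.5 cm cover and kept in a greenhouse at 25° C. to 30° C. Fourteen days on, foliage received an even spray of the diluted emulsion. Herbicidal or crop effect was judged three weeks afterwards.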

redroot pigweed [1] = test: Test Example 4: herbicidal effect by soil treatment (Table 19, symbol N); type: in vivo, redroot pigweed (Amaranthus retroflexus); details: amount of applied herbicide 320 g/ha
How it was run: (§2)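 In this soil treatment, the formulated compound reached the seeds only through the soil: seeds were buried about 1.5 cm deep in sterilized diluvial soil, then the diluted emulsion was sprayed over the surface. After three weeks at 25° C. to 30° C. in a greenhouse, effects were graded on criteria from an earlier test.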

oval-leafed pondweed [2] = test: Test Example 1: herbicidal activity, application before weed generation under submerged conditions (Table 16, symbol C); type: in vivo, oval-leafed pondweed (Monochoria vaginalis); details: 320 g/ha applied herbicide
How it was run: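 Emulsion formulation, water-diluted to set dose, was put onto the flooded surface (4 cm depth, alluvial soil) the same day weeds were sown and 2.5-leaf rice transplanted. After 3 weeks at 25-30 °C under glass, each species was rated 0 (≤5% kill) to 5 (≥90% kill).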

rice flat sedge = test: Test Example 3: herbicidal effect by foliage application, Wagner pot (Table 18, symbol E); type: in vivo, rice flat sedge (Cyperus iria); details: for herbicidal effect on E (rice flat sedge), rating 0-5: 320 g/ha; for herbicidal effect on E: rice flat sedge: amount of applied herbicide 320 g/ha
How it was run: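 Plants were sown in alluvial soil held under 0.1–0.5 cm standing water and grown 14 days in a greenhouse at 25–30 °C. An emulsifiable formulation, water-diluted to the set dose, was then sprayed onto the foliage, and effects were scored three weeks later using previously defined criteria.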

late watergrass = test: Test Example 2: herbicidal activity, application during weed generation under submerged conditions (Table 17, symbol A); type: in vivo, late watergrass (Echinochloa oryzicola); details: AAH 320 g/ha; application during weed generation, submerged conditions
How it was run: (§3)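 3-wk visual-criteria score after one water-surface dose. Emulsion formulation, water-diluted to set rate; applied at 1–2 leaf stage; alluvial soil, 4 cm standing water; seeds co-sown; greenhouse 25–30° C.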

chickweed [3] = test: Test Example 4: herbicidal effect by soil treatment (Table 19, symbol P); type: in vivo, common chickweed (Stellaria media); details: amount of applied herbicide 320 g/ha
How it was run: as §2

green foxtail [4] = test: Test Example 5: herbicidal effect by foliage application, plastic box (Table 20, symbol G); type: in vivo, green foxtail (Setaria viridis); details: foliage application, 320 g/ha, evaluated three weeks after application
How it was run: as §1

blackgrass [5] = test: Test Example 5: herbicidal effect by foliage application, plastic box (Table 20, symbol J); type: in vivo, blackgrass (Alopecurus myosuroides); details: foliage application, 320 g/ha, evaluated three weeks after application
How it was run: as §1

wild oat = test: Test Example 4: herbicidal effect by soil treatment (Table 19, symbol I); type: in vivo, wild oat (Avena fatua); details: amount of applied herbicide 320 g/ha
How it was run: as §2

blackgrass [6] = test: Test Example 4: herbicidal effect by soil treatment (Table 19, symbol J); type: in vivo, blackgrass (Alopecurus myosuroides); details: amount of applied herbicide 320 g/ha
How it was run: as §2

Italian ryegrass = test: Test Example 4: herbicidal effect by soil treatment (Table 19, symbol K); type: in vivo, Italian ryegrass (Lolium multiflorum); details: amount of applied herbicide 320 g/ha
How it was run: as §2

green foxtail [7] = test: Test Example 4: herbicidal effect by soil treatment (Table 19, symbol G); type: in vivo, green foxtail (Setaria viridis); details: amount of applied herbicide 320 g/ha
How it was run: as §2

redroot pigweed [8] = test: Test Example 5: herbicidal effect by foliage application, plastic box (Table 20, symbol N); type: in vivo, redroot pigweed (Amaranthus retroflexus); details: foliage application, 320 g/ha, evaluated three weeks after application
How it was run: as §1

chickweed [9] = test: Test Example 5: herbicidal effect by foliage application, plastic box (Table 20, symbol P); type: in vivo, common chickweed (Stellaria media); details: foliage application, 320 g/ha, evaluated three weeks after application
How it was run: as §1

persian speedwell = test: Test Example 4: herbicidal effect by soil treatment (Table 19, symbol R); type: in vivo, Persian speedwell (Veronica persica); details: amount of applied herbicide 320 g/ha
How it was run: as §2

oval-leafed pondweed [10] = test: Test Example 2: herbicidal activity, application during weed generation under submerged conditions (Table 17, symbol C); type: in vivo, oval-leafed pondweed (Monochoria vaginalis); details: AAH 320 g/ha; application during weed generation, submerged conditions
How it was run: as §3

## CCCC(=O)Oc1c(C)nn(C)c(=O)c1-c1c(-c2ccc(Cl)cc2)sc2ccc(Cl)cc12 [2-100]
Barnyard grass
  herbicidal effect on H: barnyard grass: 5 (Herbicidal rate of 90% or more (almost completely withered))
Redroot pigweed [1]
  N: redroot pigweed, herbicidal effect rating: 4 (Herbicidal rate of 70% or more and less than 90%)
oval-leafed pondweed [2]
  Herbicidal effect on C: oval-leafed pondweed (grade 0-5): 2 (Herbicidal rate of 20% or more and less than 40%)
Rice flat sedge
  herbicidal effect on E (rice flat sedge), rating 0-5: 3 (Herbicidal rate of 40% or more and less than 70%)
Late watergrass
  herbicidal effect rating, A: late watergrass: 3 (Herbicidal rate of 40% or more and less than 70%)
Chickweed [3]
  P: chickweed, herbicidal effect rating: 1 (Herbicidal rate of 5% or more and less than 20%)
Green foxtail [4]
  herbicidal effect on G: green foxtail: 4 (Herbicidal rate of 70% or more and less than 90%)
Blackgrass [5]
  herbicidal effect on J: blackgrass: 4 (Herbicidal rate of 70% or more and less than 90%)
Wild oat
  I: wild oat, herbicidal effect rating: 0 (Herbicidal rate of 5% or less (almost no effect))
Blackgrass [6]
  J: blackgrass, herbicidal effect rating: 0 (Herbicidal rate of 5% or less (almost no effect))
Italian ryegrass
  K: Italian ryegrass, herbicidal effect rating: 3 (Herbicidal rate of 40% or more and less than 70%)
Green foxtail [7]
  G: green foxtail, herbicidal effect rating: 0 (Herbicidal rate of 5% or less (almost no effect))
Redroot pigweed [8]
  herbicidal effect on N: redroot pigweed: 5 (Herbicidal rate of 90% or more (almost completely withered))
Chickweed [9]
  herbicidal effect on P: chickweed: 5 (Herbicidal rate of 90% or more (almost completely withered))
Persian speedwell
  R: persian speedwell, herbicidal effect rating: 1 (Herbicidal rate of 5% or more and less than 20%)
oval-leafed pondweed [10]
  herbicidal effect rating, C: oval-leafed pondweed: 0 (Herbicidal rate of 5% or less (almost no effect))

## COc1ccccc1-c1sc2ccc(Cl)cc2c1-c1c(O)c(C)nn(C)c1=O [2-101]
Barnyard grass
  herbicidal effect on H: barnyard grass: 3 (Herbicidal rate of 40% or more and less than 70%)
Redroot pigweed [1]
  N: redroot pigweed, herbicidal effect rating: 5 (Herbicidal rate of 90% or more (almost completely withered))
oval-leafed pondweed [2]
  Herbicidal effect on C: oval-leafed pondweed (grade 0-5): 3 (Herbicidal rate of 40% or more and less than 70%)
Rice flat sedge
  herbicidal effect on E (rice flat sedge), rating 0-5: 5 (Herbicidal rate of 90% or more (almost completely withered))
Late watergrass
  herbicidal effect rating, A: late watergrass: 0 (Herbicidal rate of 5% or less (almost no effect))
Chickweed [3]
  P: chickweed, herbicidal effect rating: 5 (Herbicidal rate of 90% or more (almost completely withered))
Green foxtail [4]
  herbicidal effect on G: green foxtail: 3 (Herbicidal rate of 40% or more and less than 70%)
Blackgrass [5]
  herbicidal effect on J: blackgrass: 5 (Herbicidal rate of 90% or more (almost completely withered))
Wild oat
  I: wild oat, herbicidal effect rating: 0 (Herbicidal rate of 5% or less (almost no effect))
Blackgrass [6]
  J: blackgrass, herbicidal effect rating: 1 (Herbicidal rate of 5% or more and less than 20%)
Italian ryegrass
  K: Italian ryegrass, herbicidal effect rating: 3 (Herbicidal rate of 40% or more and less than 70%)
Green foxtail [7]
  G: green foxtail, herbicidal effect rating: 2 (Herbicidal rate of 20% or more and less than 40%)
Redroot pigweed [8]
  herbicidal effect on N: redroot pigweed: 5 (Herbicidal rate of 90% or more (almost completely withered))
Chickweed [9]
  herbicidal effect on P: chickweed: 5 (Herbicidal rate of 90% or more (almost completely withered))
Persian speedwell
  R: persian speedwell, herbicidal effect rating: 4 (Herbicidal rate of 70% or more and less than 90%)
oval-leafed pondweed [10]
  herbicidal effect rating, C: oval-leafed pondweed: 5 (Herbicidal rate of 90% or more (almost completely withered))

## Cc1nn(C)c(=O)c(-c2c(-c3ccc(C#N)cc3)sc3ccc(Cl)cc23)c1O [2-112]
Barnyard grass
  herbicidal effect on H: barnyard grass: 4 (Herbicidal rate of 70% or more and less than 90%)
Redroot pigweed [1]
  N: redroot pigweed, herbicidal effect rating: 5 (Herbicidal rate of 90% or more (almost completely withered))
oval-leafed pondweed [2]
  Herbicidal effect on C: oval-leafed pondweed (grade 0-5): 0 (Herbicidal rate of 5% or less (almost no effect))
Rice flat sedge
  herbicidal effect on E: rice flat sedge: 5 (Herbicidal rate of 90% or more (almost completely withered))
Late watergrass
  herbicidal effect rating, A: late watergrass: 3 (Herbicidal rate of 40% or more and less than 70%)
Chickweed [3]
  P: chickweed, herbicidal effect rating: 5 (Herbicidal rate of 90% or more (almost completely withered))
Green foxtail [4]
  herbicidal effect on G: green foxtail: 4 (Herbicidal rate of 70% or more and less than 90%)
Blackgrass [5]
  herbicidal effect on J: blackgrass: 5 (Herbicidal rate of 90% or more (almost completely withered))
Wild oat
  I: wild oat, herbicidal effect rating: 0 (Herbicidal rate of 5% or less (almost no effect))
Blackgrass [6]
  J: blackgrass, herbicidal effect rating: 3 (Herbicidal rate of 40% or more and less than 70%)
Italian ryegrass
  K: Italian ryegrass, herbicidal effect rating: 5 (Herbicidal rate of 90% or more (almost completely withered))
Green foxtail [7]
  G: green foxtail, herbicidal effect rating: 0 (Herbicidal rate of 5% or less (almost no effect))
Redroot pigweed [8]
  herbicidal effect on N: redroot pigweed: 5 (Herbicidal rate of 90% or more (almost completely withered))
Chickweed [9]
  herbicidal effect on P: chickweed: 5 (Herbicidal rate of 90% or more (almost completely withered))
Persian speedwell
  R: persian speedwell, herbicidal effect rating: 5 (Herbicidal rate of 90% or more (almost completely withered))
oval-leafed pondweed [10]
  herbicidal effect rating, C: oval-leafed pondweed: 0 (Herbicidal rate of 5% or less (almost no effect))

## CCCC(=O)Oc1c(C)nn(C)c(=O)c1-c1c(-c2cccc(F)c2)sc2ccc(F)cc12 [2-202]
Barnyard grass
  herbicidal effect on H: barnyard grass (criteria 0-5): 4 (Herbicidal rate of 70% or more and less than 90%)
Redroot pigweed [1]
  N: redroot pigweed, herbicidal effect rating: 5 (Herbicidal rate of 90% or more (almost completely withered))
oval-leafed pondweed [2]
  Herbicidal effect on C: oval-leafed pondweed (grade 0-5): 0 (Herbicidal rate of 5% or less (almost no effect))
Rice flat sedge
  herbicidal effect on E: rice flat sedge: 5 (Herbicidal rate of 90% or more (almost completely withered))
Late watergrass
  herbicidal effect rating, A: late watergrass: 4 (Herbicidal rate of 70% or more and less than 90%)
Chickweed [3]
  P: chickweed, herbicidal effect rating: 4 (Herbicidal rate of 70% or more and less than 90%)
Green foxtail [4]
  herbicidal effect on G: green foxtail (criteria 0-5): 4 (Herbicidal rate of 70% or more and less than 90%)
Blackgrass [5]
  herbicidal effect on J: blackgrass (criteria 0-5): 1 (Herbicidal rate of 5% or more and less than 20%)
Wild oat
  I: wild oat, herbicidal effect rating: 0 (Herbicidal rate of 5% or less (almost no effect))
Blackgrass [6]
  J: blackgrass, herbicidal effect rating: 0 (Herbicidal rate of 5% or less (almost no effect))
Italian ryegrass
  K: Italian ryegrass, herbicidal effect rating: 1 (Herbicidal rate of 5% or more and less than 20%)
Green foxtail [7]
  G: green foxtail, herbicidal effect rating: 3 (Herbicidal rate of 40% or more and less than 70%)
Redroot pigweed [8]
  herbicidal effect on N: redroot pigweed (criteria 0-5): 5 (Herbicidal rate of 90% or more (almost completely withered))
Chickweed [9]
  herbicidal effect on P: chickweed (criteria 0-5): 5 (Herbicidal rate of 90% or more (almost completely withered))
Persian speedwell
  R: persian speedwell, herbicidal effect rating: 4 (Herbicidal rate of 70% or more and less than 90%)
oval-leafed pondweed [10]
  herbicidal effect rating, C: oval-leafed pondweed: 4 (Herbicidal rate of 70% or more and less than 90%)
